pIC50: −log10 of the molar value.
Legend:
[1] = tested on: breast cancer MDA-MB-436; assay: Challenge experiment on subcutaneous xenograft tumor model of breast cancer MDA-MB-436 (large-volume tumors)
Method: Each group consisted of 5 mice and was administered orally once per day. The body weight of the mice was measured every 2 days, and the length and width of the tumors with a vernier caliper.

[2] = Body weight in MDA-MB-436 xenograft study; type: in vivo, NOD/SCID mice; conditions: for Body weight X ± SD, End: 24 days
Method: (§1) Animal assay: all viable experimental animals scheduled for assay; Assay time: All animals were weighed before the modeling for test grouping. After modeling, the mice were weighed once every 2 days, and the weight change of the mice was recorded in real time. Effective criteria: tumor volume (TV), relative tumor volume (RTV) and relative tumor growth rate of subcutaneously implanted tumor model. The long diameter and short diameter of the tumor was measured with vernier calipers every 2 days, and the anti-tumor effects of the tested drug was dynamically observed. The calculation formula of tumor volume (TV) was: TV (mm^3)=a×b2×0.5, where a and b were the long diameter and short diameter, respectively.
Each group consisted of 6 mice, all of which are administered orally once daily. […] After 24 days of administration, the tumor-bearing mice were anesthetized and euthanized. The tumor tissues were dissected, weighed, and photographed, and the tumor inhibition rate was calculated.

[3] = tested on: gastric cancer PDX; assay: In-vivo pharmacodynamic study on PDX gastric cancer mice model; set-up: species or system patient-derived tumor in mice
Method: 7. In-Vivo Pharmacodynamic Study of Compound 6 on PDX Gastric Cancer Mice model
Experimental procedure: Tumor tissues from gastric cancer patients were used to establish a stable passaged tumor-bearing mice model. In this study, tumor fragments from mice that had been stably passaged three times were used for subcutaneous inoculation. Eight groups were divided for the experiment, with 6 mice in each group. The negative control group (Control) received normal saline at 0.2 mL per mice per administration, given orally once per day; the carboplatin control group (Carboplatin, Car) received 20 mg/kg at 0.2 mL per mice per administration, administered via intraperitoneal injection once every 7 days.

[4] = Pharmacokinetic evaluation in Balb/c mice; type: in vivo; conditions: 1 mg/kg orally
Method: Pharmacokinetic Evaluation of Compound in Balb/c Mice
(§3) Experimental purpose: To learn pharmacokinetic profiles of compounds.
Experimental scheme: The pharmacokinetic profile of the compound was investigated by means of administering it intravenously (1 mg kg^−1) and orally (1 mg kg^−1) to Balb/c mice.
Sample preparation: About 0.2 mg of the compound was dissolved in 10 μL DMSO, then a sodium chloride injection was added to make a 0.1 mg mL^−1 solution of the compound for administration.
Three mice were administered the compound intravenously (IV) at a dose of 1 mg kg^−1, and the other three were administered the compound orally (PO) at the same dose. […] The plasma concentration of the drug was quantitatively analyzed with the LC-MS/MS method, and pharmacokinetic parameters were calculated, including the time to peak concentration (Cmax), area under the concentration-time curve (AUC(0-t)), half-life (T1/2), clearance (CL), volume of distribution at steady state (Vdss), and bioavailability (F).

[5] = tested on: breast cancer MDA-MB-436; assay: In-vivo pharmacodynamic study on subcutaneous xenograft tumor model of breast cancer MDA-MB-436; set-up: species or system human tumor cells in NOD/SCID mice
Method: Strain: NOD/SCID; Grade: SPF; Source: Beijing Vitron River Bio-technology Co., Ltd.
The cells were washed 3 times with pre-cooled PBS, centrifuged at 300 g for 10 min, collected, re-suspended in PBS, and counted with a blood cell counting chamber, and the cell concentration was adjusted. After cell collection, the cell suspension was pre-cooled on ice. 100 μL of the cell suspension was administered via subcutaneous injection into the dorsal flank of the mice, and the grouped treatment was started when the tumor volume reached 200-300 mm^3.
as §1, with “The long diameter and short diameter of the tumor was measured with vernier calipers every 2 days, and the anti-tumor effects of the tested drug was dynamically observed.” left out
The evaluation index for anti-tumor activity was the relative tumor growth rate T/C (%), and the calculation formula was as follows: […]
Where, TRTV is relative tumor volume of the treatment group; CRTV is relative tumor volume of the negative control group. […] The tumor inhibition rate (%) was calculated by the formula below: […]
All raw data within the facility were collected manually according to the experimental scheme and the relevant guidelines of the research institution, or gathered by using a data acquisition system. Manually collected data can be transcribed into software such as Excel for analysis and reporting. The data from each group were quantitative, and the experimental data for each group of animals in the tables were expressed as mean±standard deviation (Mean±SD). In the figures, the experimental data ware described as mean±standard error of the mean (Mean±SEM). Statistical analysis, including t-tests and survival analysis, was performed by using the software such as EXCEL and GraphPad Prism.
After 24 days of administration, the tumor-bearing mice were anesthetized and euthanized. The tumor tissues were dissected, weighed, and photographed, and the tumor inhibition rate was calculated.

[6] = tested on: MDA-MB-436 cells; assay: Anti-proliferative activity assay, BRCA-mutated MDA-MB-436 cells (CCK8); type: cell-based; conditions: Homo sapiens, MDA-MB-436, BRCA-mutated, 72 h + 96 h
Excerpt: (§2) 2. Anti-Proliferative Activity Assay of Cell:

[7] = tested on: SUM14PT; assay: In-vivo pharmacodynamic study on subcutaneous xenograft tumor model of breast cancer SUM14PT; set-up: species or system nude mice
Method: Experimental procedure: In this study, a mice model was established by subcutaneously inoculating SUM14PT tumor cells. Eight groups were divided for the experiment, with 6 mice in each group. The negative control group (Control) received normal saline at 0.2 mL per mice per administration, given orally once per day; the carboplatin control group (Carboplatin, Car) received 20 mg/kg at 0.2 mL per mice per administration, administered via intraperitoneal injection once every 7 days.

[8] = Pharmacokinetic evaluation in SD rat; type: in vivo; conditions: SD rats
Method: Pharmacokinetic Evaluation of Compound in SD Rat
as §3
Experimental scheme: The pharmacokinetic profile of the compound was investigated by oral intravenous administration in SD rats.
Experimental procedure: The compound, a small amount of DMSO and a sodium chloride injection were added to prepare the final solution for administration. The compound was orally administered to 6 male SD rats. […] The supernatant was collected and transferred into a sample vial for assay. Range of standard curve: 10-10,000 ng mL^−1.

[9] = tested on: DLD-1 cells; assay: Anti-proliferative activity assay, BRCA wild-type DLD-1 cells (CCK8); type: cell-based; conditions: Homo sapiens, 72 h + 96 h
Excerpt: as §2

[10] = 0.03 mg/kg orally once daily, 24 days
[11] = 0.1 mg/kg orally once daily, 24 days
[12] = 0.3 mg/kg orally once daily, 24 days

Structure (SMILES): [2H]C([2H])([2H])C([2H])([2H])c1cc2ncc(CN3CC=C(c4ccc(C(=O)NC)nc4)CC3)cc2[nH]c1=O [Compound 6, 1′-((7-(ethyl-d5)-6-oxo-5,6-dihydro-1,5-naphthyridin-3-yl)methyl)-N-methyl-1′,2′,3′,6′-tetrahy dro-[3,4′-bipyridine]-6-carboxamide]
- rate of tumor regression, comparison with compounds 1 and 21 ([1]; 1 mg/kg orally once per day): faster rate of tumor regression compared to the compounds 1 and 21
- tumor regression in large-volume tumors ([1]; 1 mg/kg orally once per day): complete regression of tumors
- in-vivo anti-tumor efficacy, comparison with compounds 1 and 21 ([1]; 1 mg/kg, same dose): stronger in-vivo anti-tumor efficacy than compounds 1 and 21
- Body weight X ± SD, End ([2]; 0.03 mg/kg orally once daily): 21.6 ± 0.7 g
- Body weight X ± SD, Start ([2]; 0.03 mg/kg orally once daily): 22.6 ± 0.7 g
- Body weight X ± SD, End ([2]; 0.1 mg/kg orally once daily): 21.6 ± 0.7 g
- Body weight X ± SD, Start ([2]; 0.1 mg/kg orally once daily): 22.3 ± 1.0 g
- Body weight X ± SD, End ([2]; 0.3 mg/kg orally once daily): 22.0 ± 0.9 g
- Body weight X ± SD, Start ([2]; 0.3 mg/kg orally once daily): 22.3 ± 0.8 g
- inhibition of tumor growth in gastric cancer PDX model ([3]; 3 mg/kg p.o. combined with carboplatin 20 mg/kg i.p.): significantly inhibit tumor growth
- inhibitory effect on gastric cancer PDX model ([3]; combined with carboplatin (20 mg/kg i.p. once every 7 days), 0.3, 1, 3 mg/kg p.o.): dose-dependent inhibitory effect
- Cmax, comparison with AZD5305 and compounds 1, 2, 3, 15, 21 [4]: superior to that of the reference compound 5305, as well as compounds 1, 2, 3, 15, and 21
- Tumor inhibition rate [5, 10]: 49.77%
- Tumor weight X ± SD [5, 10]: 1.09 ± 0.29 g
- Tumor volume X ± SD, End [5, 10]: 739.4 ± 308.7 mm^3
- Tumor volume X ± SD, Start ([5]; 0.03 mg/kg orally once daily): 275.0 ± 68.1 mm^3
- Tumor inhibition rate [5, 11]: 86.73%
- Tumor weight X ± SD [5, 11]: 0.29 ± 0.09 g
- Tumor volume X ± SD, End [5, 11]: 228.0 ± 75.9 mm^3
- Tumor volume X ± SD, Start ([5]; 0.1 mg/kg orally once daily): 274.7 ± 73.8 mm^3
- tumor inhibition effect, comparison with AZD5305, compound 1 and Olaparib ([5]; 0.1 mg/kg vs same dose of AZD5305 and compound 1, vs Olaparib 100 mg/kg): superior to that of the reference compound AZD5305 and the compound 1 at the same dose, and significantly better than that of the reference drug Olaparib group (100 mg/kg)
- Tumor inhibition rate [5, 12]: 95.83%
- Tumor weight X ± SD [5, 12]: 0.09 ± 0.08 g
- Tumor volume X ± SD, End [5, 12]: 71.0 ± 62.5 mm^3
- Tumor volume X ± SD, Start ([5]; 0.3 mg/kg orally once daily): 281.9 ± 67.4 mm^3
- complete tumor regression ([5]; 0.3 mg/kg, at the end of treatment): 2/6
- dose dependence among low, medium and high dose groups ([5]; 0.03, 0.1, 0.3 mg/kg, P<0.001, P<0.01): significant dose-dependent differences
- inhibitory effects on tumor growth compared to blank control group ([5]; 24 days, all dose groups): significant inhibitory effects on tumor growth
- pIC50 [6]: 9.22
- therapeutic efficacy in combination with carboplatin, compared to Olaparib plus carboplatin ([7]; 1 mg/kg orally once daily + carboplatin vs Olaparib 100 mg/kg + carboplatin): better therapeutic efficacy than Olaparib
- anti-tumor efficacy, monotherapy, compared to Olaparib ([7]; 0.3 and 1 mg/kg orally once daily vs Olaparib 100 mg/kg orally once daily): better anti-tumor efficacy compared to Olaparib
- Cmax, comparison with AZD5305, compound 1 and compound 21 [8]: superior to those of the reference compound AZD5305, compound 1 and compound 21
- pIC50 [9]: < 5.00
